According to ChEMBL document CHEMBL5385865, “Discovery and optimization of 2-(trifluoromethyl)benzimidazole derivatives as novel ferroptosis inducers in vitro and in vivo” (Eur J Med Chem, 2023):
Active and inactive are the calls of the source. The calls are words filed in the database; no cut-off is given here.

Assays:
HepG2 [1] = assay: Inhibition of cell proliferation in human HepG2 cells xenografted in BALB/c nude mouse at 15 to 30 mg/kg, ip administered every other day for 21 days by Ki67 staining based IHC analysis; format: functional, organism-based; conditions: dose 15-30 mg/kg, time 21.0 day
HT-1080 [2] = assay: Induction of ferroptosis in human HT-1080 cells assessed as shrinkage of mitochondria at 5 uM incubated for 24 hrs by TEM analysis; format: functional, cell-based
[3] = Metabolic stability in human liver microsomes assessed as intrinsic clearance measured per mg protein at 1 uM in presence of NADPH by LC-MS analysis; format: ADME, Microsome; conditions: read-out: CLH
[4] = Metabolic stability in […] rat microsomes assessed as half life at 1 uM in presence of NADPH by LC-MS analysis; format: ADME, Liver, Microsome
[5] = Metabolic stability in rat liver microsomes assessed as intrinsic clearance measured per mg protein at 1 uM in presence of NADPH by LC-MS analysis; format: ADME, Microsome; conditions: read-out: CLH
[6] = Toxicity in BALB/c nude mouse xenografted with human HepG2 cells assessed as body weight loss at 15 to 30 mg/kg, ip administered every other day for 21 days; format: organism-based; conditions: in vivo, 504 h, dose 15-30 mg/kg, time 21 day
HT-1080 [7] = assay: Induction of ferroptosis in human HT-1080 cells assessed as cell death at 10 uM incubated for 24 hrs in presence of Fer-1 by MTT assay; format: functional, cell-based
HT-1080 [8] = assay: Induction of ferroptosis in human HT-1080 cells assessed as cell death at 10 uM incubated for 24 hrs in presence of Trolox by MTT assay; format: functional, cell-based
HT-1080 [9] = assay: Induction of ferroptosis in human HT-1080 cells assessed as cell death at 10 uM incubated for 24 hrs in presence of Z-VAD-FMK by MTT assay; format: functional, cell-based
HT-1080 [10] = assay: Induction of ferroptosis in human HT-1080 cells assessed as cell death at 10 uM incubated for 24 hrs in presence of Nec-1 by MTT assay; format: functional, cell-based
HT-1080 [11] = assay: Induction of ferroptosis in human HT-1080 cells assessed as increase in lipid ROS accumulation at 5 uM incubated for 10 hrs in presence of Fer-1 by BODIPY-C11 probe based confocal laser scanning microscopy; format: functional, cell-based
HT-1080 [12] = assay: Induction of ferroptosis in human HT-1080 cells assessed as increase in cytosolic ROS accumulation at 5 uM incubated for 10 hrs in presence of Fer-1 by H2DCFDA probe based flow cytometry; format: functional, cell-based
HT-1080 [13] = assay: Induction of ferroptosis in human HT-1080 cells assessed as increase in SLC7A11 mRNA level incubated for 18 hrs by qPCR analysis; format: functional, cell-based; conditions: dose 0.5-5 µM
[14] = molecular target: T1, Cystine/glutamate transporter (Homo sapiens) (UniProt Q9UPY5); assay: Inhibition of Xc- in human HT-1080 cells assessed as decrease in glutamate release incubated for 3 hrs by Amplex red assay; format: cell-based; conditions: dose 0.5-5 µM
T1 sequence (whole entry): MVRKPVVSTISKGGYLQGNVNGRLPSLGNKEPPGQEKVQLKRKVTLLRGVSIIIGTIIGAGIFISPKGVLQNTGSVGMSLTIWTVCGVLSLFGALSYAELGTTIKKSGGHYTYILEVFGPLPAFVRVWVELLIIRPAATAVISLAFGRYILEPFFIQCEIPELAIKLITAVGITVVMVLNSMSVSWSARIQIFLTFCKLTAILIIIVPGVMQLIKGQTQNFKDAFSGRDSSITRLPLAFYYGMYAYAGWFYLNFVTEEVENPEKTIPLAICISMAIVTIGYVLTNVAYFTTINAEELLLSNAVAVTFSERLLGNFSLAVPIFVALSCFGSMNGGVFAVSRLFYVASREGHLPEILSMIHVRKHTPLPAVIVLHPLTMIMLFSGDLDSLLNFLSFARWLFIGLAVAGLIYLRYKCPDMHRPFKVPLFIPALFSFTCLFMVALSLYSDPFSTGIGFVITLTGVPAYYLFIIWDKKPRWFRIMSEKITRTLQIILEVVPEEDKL

HT-1080 [15] = assay: Induction of ferroptosis in human HT-1080 cells assessed as cell death at 5 uM incubated for 24 hrs in presence of beta-mercaptoethanol by MTT assay; format: functional, cell-based
HT-1080 [16] = assay: Induction of ferroptosis in human HT-1080 cells overexpressing SLC7A11 assessed as increase in lipid peroxidation by BODIPY-C11 probe based confocal laser scanning microscopy; format: functional, cell-based
MDA-MB-231 = assay: Lethality in human MDA-MB-231 cells assessed as inhibition of cell viability incubated for 24 hrs by MTT assay; format: functional, cell-based; conditions: MDA-MB-231, 24 h
A-375 [17] = assay: Lethality in human A-375 cells assessed as inhibition of cell viability incubated for 24 hrs by MTT assay; format: functional, cell-based; conditions: A-375, 24 h
786-0 = assay: Lethality in human 786-0 cells assessed as decrease in cell viability at 10 uM incubated for 48 hrs by MTT assay; format: functional, cell-based
HeLa = assay: Lethality in human HeLa cells assessed as decrease in cell viability at 10 uM incubated for 48 hrs by MTT assay; format: functional, cell-based
HepG2 [18] = assay: Lethality in human HepG2 cells assessed as decrease in cell viability at 10 uM incubated for 48 hrs by MTT assay; format: functional, cell-based
DU-145 [19] = assay: Lethality in human DU-145 cells assessed as decrease in cell viability at 10 uM incubated for 48 hrs by MTT assay; format: functional, cell-based
A-375 [20] = assay: Lethality in human A-375 cells assessed as decrease in cell viability at 10 uM incubated for 48 hrs in presence of Fer-1 by MTT assay; format: functional, cell-based
DU-145 [21] = assay: Lethality in human DU-145 cells assessed as decrease in cell viability at 10 uM incubated for 48 hrs in presence of Fer-1 by MTT assay; format: functional, cell-based
[22] = Toxicity in BALB/c nude mouse xenografted with human HepG2 cells assessed as effect on serum ALT level at 15 to 30 mg/kg, ip administered every other day for 21 days; format: organism-based; conditions: in vivo, 504 h, dose 15-30 mg/kg, time 21 day
[23] = Toxicity in BALB/c nude mouse xenografted with human HepG2 cells assessed as effect on serum AST level at 15 to 30 mg/kg, ip administered every other day for 21 days; format: organism-based; conditions: in vivo, 504 h, dose 15-30 mg/kg, time 21 day
[24] = Toxicity in BALB/c nude mouse xenografted with human HepG2 cells assessed as effect on serum ALP level at 15 to 30 mg/kg, ip administered every other day for 21 days; format: organism-based; conditions: in vivo, 504 h, dose 15-30 mg/kg, time 21 day
[25] = Toxicity in BALB/c nude mouse xenografted with human HepG2 cells assessed as effect on serum CREA level at 15 to 30 mg/kg, ip administered every other day for 21 days; format: organism-based; conditions: in vivo, 504 h, dose 15-30 mg/kg, time 21 day
[26] = Toxicity in BALB/c nude mouse xenografted with human HepG2 cells assessed as histological change in heart at 15 to 30 mg/kg, ip administered every other day for 21 days by H and E staining based analysis; format: organism-based; conditions: in vivo, 504 h, dose 15-30 mg/kg, time 21 day
[27] = Toxicity in BALB/c nude mouse xenografted with human HepG2 cells assessed as histological change in liver at 15 to 30 mg/kg, ip administered every other day for 21 days by H and E staining based analysis; format: organism-based; conditions: in vivo, 504 h, dose 15-30 mg/kg, time 21 day
HepG2 [28] = assay: Induction of ferroptosis in human HepG2 cells xenografted in BALB/c nude mouse assessed as increase in 4-HNE level administered intraperitoneally every other day for 21 days; format: functional; conditions: dose 15-30 mg/kg, route ip, time 21.0 day

With `CN(C)S(=O)(=O)c1ccc(N2CCC(Cn3c(C(F)(F)F)nc4ccccc43)CC2)cc1` the inhibition (HepG2 [1]) was “Active”, the Activity (HT-1080 [2]) was “Active” and the microsomal CLint at 1 µM [3] was 88.6 µL/min/mg. For the same molecule, the half-life at 1 µM [4] was 10.4 min, the microsomal CLint at 1 µM [5] was 133 µL/min/mg and the Activity [6] was “Non-Toxic”. For the same molecule, the Activity (HT-1080 [7]) was “inactive”, the Activity (HT-1080 [8]) was “inactive” and the Activity (HT-1080 [9]) was “Active”. For the same molecule, the Activity (HT-1080 [10]) was “Active”, the Activity (HT-1080 [11]) was “inactive” and the Activity (HT-1080 [12]) was “inactive”. For the same molecule, the Activity (HT-1080 [13]) was “Dose-Dependent Effect”, the inhibition [14] was “Dose-Dependent Effect” and the Activity (HT-1080 [15]) was “inactive”. The Activity (HT-1080 [16]) was “inactive”, the IC50 (MDA-MB-231) was 4.34 µM and the IC50 (A-375 [17]) was 2.31 µM. The Activity (786-0) was “Active”, the Activity (HeLa) was “Active” and the Activity (HepG2 [18]) was “Active”. For the same molecule, the Activity (DU-145 [19]) was “Active”, the Activity (A-375 [20]) was “inactive” and the Activity (DU-145 [21]) was “inactive”. The Activity [22] was “Non-Toxic”, the Activity [23] was “Non-Toxic” and the Activity [24] was “Non-Toxic”. The Activity [25] was “Non-Toxic”, the Activity [26] was “Non-Toxic” and the Activity [27] was “Non-Toxic”. For the same molecule, the Activity (HepG2 [28]) was “Dose-Dependent Effect”.
